Laboratory results published in ChEMBL document CHEMBL1909046, “DrugMatrix in vitro pharmacology data”.

Experiments:
[1] = DRUGMATRIX: beta-Lactamase enzyme inhibition (substrate: Nitrocefin); design: species or system Bacillus cereus; settings: Not Active = under 50% inhibition at 10 µM
[2] = DRUGMATRIX: Sigma2 radioligand binding (ligand: [3H] Ifenprodil); assay type: cell membranes, Rattus norvegicus, Wistar, Brain, Membrane; settings: Not Active = under 50% inhibition at 10 µM
[3] = target: Melanocortin receptor 4 (Homo sapiens, UniProt P32245); assay type: cell membranes, HEK293, Membrane; settings: hek293; also: in other assays of this panel Not Active means under 50% inhibition at 10 µM
Chain of Melanocortin receptor 4 (P32245 whole entry): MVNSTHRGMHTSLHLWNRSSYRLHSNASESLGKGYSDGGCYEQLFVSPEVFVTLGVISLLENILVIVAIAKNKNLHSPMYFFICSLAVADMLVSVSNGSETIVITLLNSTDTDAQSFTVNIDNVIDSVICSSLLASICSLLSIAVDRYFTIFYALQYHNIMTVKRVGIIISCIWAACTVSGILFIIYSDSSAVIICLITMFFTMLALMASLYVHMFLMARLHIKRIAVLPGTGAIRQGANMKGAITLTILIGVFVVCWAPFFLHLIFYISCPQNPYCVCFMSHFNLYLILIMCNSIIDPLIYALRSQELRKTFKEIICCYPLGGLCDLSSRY

[4] = target: T1, Muscarinic acetylcholine receptor M4 (Homo sapiens, UniProt P08173); assay type: cell membranes, CHO-K1, Membrane; settings: cho-k1; also: in other assays of this panel Not Active means under 50% inhibition at 10 µM
T1 sequence (P08173 whole entry): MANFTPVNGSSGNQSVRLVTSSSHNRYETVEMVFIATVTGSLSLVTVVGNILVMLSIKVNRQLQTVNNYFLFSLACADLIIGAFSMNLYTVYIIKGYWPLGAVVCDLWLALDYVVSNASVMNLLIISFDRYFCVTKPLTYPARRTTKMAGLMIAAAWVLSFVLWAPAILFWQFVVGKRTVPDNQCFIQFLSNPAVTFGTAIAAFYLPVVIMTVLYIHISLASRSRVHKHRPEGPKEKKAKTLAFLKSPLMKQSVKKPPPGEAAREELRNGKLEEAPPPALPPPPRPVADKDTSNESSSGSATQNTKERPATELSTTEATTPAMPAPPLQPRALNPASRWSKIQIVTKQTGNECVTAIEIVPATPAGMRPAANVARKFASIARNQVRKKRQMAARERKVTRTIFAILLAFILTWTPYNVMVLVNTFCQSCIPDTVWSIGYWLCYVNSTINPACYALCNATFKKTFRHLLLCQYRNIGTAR

[5] = target: Protein kinase C alpha type (Homo sapiens, UniProt P17252); assay type: cell-based; settings: sf9;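 also: inhibition of PKCalpha kinase activity measured in an enzyme assay with histone as the phosphorylation substrate; in other assays of this panel Not Active means under 50% inhibition at 10 µM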
[6] = target: Mitogen-activated protein kinase 1 (Homo sapiens, UniProt P28482); assay: DRUGMATRIX: Protein Serine/Threonine Kinase, ERK2 enzyme inhibition (substrate: Myelin Basic Protein); design: species or system Escherichia coli; settings: Not Active = under 50% inhibition at 10 µM
Chain of Mitogen-activated protein kinase 1 (P28482 whole entry): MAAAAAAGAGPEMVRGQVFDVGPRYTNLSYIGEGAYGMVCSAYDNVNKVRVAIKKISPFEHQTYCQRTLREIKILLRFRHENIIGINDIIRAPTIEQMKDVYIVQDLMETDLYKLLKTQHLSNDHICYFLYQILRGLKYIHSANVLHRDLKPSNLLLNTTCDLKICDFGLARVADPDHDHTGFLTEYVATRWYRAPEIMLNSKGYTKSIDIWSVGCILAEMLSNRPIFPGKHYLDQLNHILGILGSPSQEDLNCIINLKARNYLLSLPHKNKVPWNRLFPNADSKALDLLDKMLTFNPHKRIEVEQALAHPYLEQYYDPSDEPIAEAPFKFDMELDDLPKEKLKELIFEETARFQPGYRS

Molecule | IC50 [1] | Ki [1] | IC50 ([2]; read-out: IC50) [µM] | Ki ([2]; read-out: Ki) [µM] | IC50 [3] | IC50 [4] | IC50 [5] | IC50 [6] | IC50 [2] | Ki [2] | IC50 ([6]; read-out: IC50) [µM] | Ki [3] | Ki [4] | Ki [5] | Ki [6]
CN(C/C=C/C#CC(C)(C)C)Cc1cccc2ccccc12 [TERBINAFINE] | Not Active | Not Active | 0.0354 | 0.0218 | Not Active | Not Active | Not Active | Not Active |  |  |  |  |  |  | 
CCCCNc1ccc(C(=O)OCCN(C)C)cc1 [TETRACAINE] | Not Active | Not Active |  |  | Not Active | Not Active | Not Active | Not Active | Not Active | Not Active |  |  |  |  | 
Cn1c(=O)c2nc[nH]c2n(C)c1=O.O [THEOPHYLLINE] | Not Active | Not Active |  |  | Not Active | Not Active | Not Active | Not Active | Not Active | Not Active |  |  |  |  | 
CS(=O)(=O)c1ccc([C@@H](O)[C@@H](CO)NC(=O)C(Cl)Cl)cc1 [THIAMPHENICOL] | Not Active | Not Active |  |  | Not Active | Not Active | Not Active | Not Active | Not Active | Not Active |  |  |  |  | 
CCN(CC)CCNC(=O)c1cc(S(C)(=O)=O)ccc1OC [TIAPRIDE] | Not Active | Not Active |  |  | Not Active | Not Active | Not Active | Not Active | Not Active | Not Active |  |  |  |  | 
Clc1ccccc1CN1CCc2sccc2C1 [TICLOPIDINE] | Not Active | Not Active | 3.26 | 2.01 | Not Active | Not Active | Not Active | Not Active |  |  |  |  |  |  | 
NC1CCN(c2nc3c(cc2F)c(=O)c(C(=O)O)cn3-c2ccc(F)cc2F)C1 (stereo unspecified) [TOSUFLOXACIN] | Not Active | Not Active |  |  | Not Active | Not Active | Not Active | Not Active | Not Active | Not Active |  |  |  |  | 
O=C(Nc1ccc(Br)cc1)c1cc(Br)cc(Br)c1O [TRIBROMSALAN] | Not Active | Not Active |  |  | Not Active | Not Active | Not Active |  | Not Active | Not Active | 0.623 |  |  |  | 
CC(c1cc2ccccc2s1)N(O)C(N)=O (stereo unspecified) [ZILEUTON] | Not Active | Not Active |  |  | Not Active | Not Active | Not Active | Not Active | Not Active | Not Active |  |  |  |  | 
MANGANESE CHLORIDE ANHYDROUS | Not Active | Not Active |  |  | Not Active | Not Active | Not Active | Not Active | Not Active | Not Active |  | Not Active | Not Active | Not Active | Not Active
SODIUM ORTHOVANAD | Not Active | Not Active |  |  | Not Active | Not Active | Not Active | Not Active | Not Active | Not Active |  | Not Active | Not Active | Not Active | Not Active
